Assays:
CLL cells [1] = experiment: Cytotoxicity of NOS inhibitors for CLL cells in vitro (PI exclusion assay); format: cell-based; conditions: Homo sapiens, CLL cell, read-out: Mean ED50 ± S.E.M. (CLL cell cytotoxicity)
From the text: Toxicity could be detected by disappearance of cells from the culture (reduction in overall cell number), uptake of trypan blue, propidium iodide uptake (flow cytometry), MTS (4,5-dimethylthiazol-2-yl)-5-(3-carboxymethoxyphenyl)-2-(4-sulfophenyl)-2H-tetrazolium, inner salt) assay (cellular respiration), and several parameters of apoptosis [annexin V assay, DNA content (<in), and TUNEL assay].

[2] = biological target: T1, purified recombinant rat NOS1 oxygenase domain (Rattus norvegicus, UniProt P29476); experiment: NOS inhibitor binding (Kd) to NOS1
T1 construct: purified recombinant rat NOS1 oxygenase domain

[3] = biological target: T2, purified recombinant human NOS2 oxygenase domain (Homo sapiens, UniProt P35228); experiment: NOS inhibitor binding (Kd) to NOS2
T2 construct: purified recombinant human NOS2 oxygenase domain
Procedure: […] The cLogP value for each NOS inhibitor was determined using the CLOGP computer program (BioByte, Claremont, Calif.). […] Linear regression was used to examine the correlation between the IC50, Kd and cLogP values and ED50 values.
We determined the dissociation constant for NOS inhibitor binding (Kd) to purified recombinant and NOS2.

CLL cells [4] = experiment: Cytotoxicity of NOS inhibitors for CLL cells in vitro (MTS assay); conditions: cytotoxicity for CLL cells in vitro
From the text: We worked to optimize the culture of CLL cells (Reference 86). […] These were all tested with and without albumin, fetal bovine serum, human serum, glutamine, insulin, transferrin, selenium, and mercaptoethanol.
Toxicity could be detected by disappearance of cells from the culture (reduction in overall cell number), uptake of trypan blue, propidium iodide uptake (flow cytometry), MTS (4,5-dimethylthiazol-2-yl)-5-(3-carboxymethoxyphenyl)-2-(4-sulfophenyl)-2H-tetrazolium, inner salt) assay (cellular respiration), and several parameters of apoptosis [annexin V assay, DNA content […], and TUNEL assay].

CLL cells [5] = experiment: CLL cell apoptosis (TUNEL assay); format: cell-based, human; conditions: CLL cells in vitro
Procedure: Culture of cells with IL-4 or IFN-γ (but not TNF-α, IL-2, IL-6, IL-8, G-CSF, nerve growth factor, or IFN-α) increased NO production. By quantitative RT-PCR, IL-4 increased NOS2 mRNA (FIG. 8). Also, 5 of 5 patients' CLL cells had increases in NOS2 protein (immunoblot) after in vitro treatment with IL-4. Apoptosis (TUNEL assay) was induced by NMMA treatment of the cells, and incubating cells with IL-4 or IFN-y reduced apoptosis. […] Since IL-4 and IFN-gamma induce NOS2 and modulate CD38 expression in CLL cells in vitro, we sought to determine if CLL patients had elevated levels of these cytokines and if the levels related to CD38 expression by the leukemia cells (Reference 87).

[6] = normals, trials for septic shock and migraine; cited from earlier work

T1 sequence (P29476 1-720 limits assumed): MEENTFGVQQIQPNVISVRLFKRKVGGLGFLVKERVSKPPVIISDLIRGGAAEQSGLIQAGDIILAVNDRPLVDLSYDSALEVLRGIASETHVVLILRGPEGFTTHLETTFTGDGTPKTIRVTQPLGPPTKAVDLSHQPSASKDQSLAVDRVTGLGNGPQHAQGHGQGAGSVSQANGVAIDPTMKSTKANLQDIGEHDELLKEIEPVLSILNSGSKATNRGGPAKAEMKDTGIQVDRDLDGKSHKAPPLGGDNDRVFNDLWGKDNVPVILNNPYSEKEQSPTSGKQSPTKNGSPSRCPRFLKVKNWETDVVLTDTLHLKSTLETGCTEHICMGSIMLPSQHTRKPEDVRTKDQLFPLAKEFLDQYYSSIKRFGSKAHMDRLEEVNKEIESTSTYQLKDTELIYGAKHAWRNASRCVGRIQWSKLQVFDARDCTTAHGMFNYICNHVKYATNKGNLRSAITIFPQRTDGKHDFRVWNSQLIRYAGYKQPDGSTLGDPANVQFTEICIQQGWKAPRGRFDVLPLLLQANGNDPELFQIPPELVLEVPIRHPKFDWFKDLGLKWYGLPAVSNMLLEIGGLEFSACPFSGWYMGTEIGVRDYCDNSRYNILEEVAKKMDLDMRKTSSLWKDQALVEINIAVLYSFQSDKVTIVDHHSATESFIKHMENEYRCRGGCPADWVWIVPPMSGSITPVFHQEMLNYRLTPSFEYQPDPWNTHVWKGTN
T2 sequence (P35228 1-504 limits assumed): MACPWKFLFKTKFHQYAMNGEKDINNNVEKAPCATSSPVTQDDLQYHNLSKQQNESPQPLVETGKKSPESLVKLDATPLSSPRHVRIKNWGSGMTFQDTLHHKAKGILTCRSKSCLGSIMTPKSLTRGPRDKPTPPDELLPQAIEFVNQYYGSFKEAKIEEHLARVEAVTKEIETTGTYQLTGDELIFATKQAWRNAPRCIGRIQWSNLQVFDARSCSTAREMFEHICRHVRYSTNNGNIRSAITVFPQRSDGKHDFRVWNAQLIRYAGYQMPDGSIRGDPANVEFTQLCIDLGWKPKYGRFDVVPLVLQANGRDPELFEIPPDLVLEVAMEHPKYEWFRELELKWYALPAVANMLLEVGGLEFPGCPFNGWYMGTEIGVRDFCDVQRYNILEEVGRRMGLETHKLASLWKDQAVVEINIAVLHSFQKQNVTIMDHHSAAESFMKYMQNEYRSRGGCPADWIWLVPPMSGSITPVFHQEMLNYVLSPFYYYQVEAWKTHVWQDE

Kd [2] [µM]	Kd [3] [µM]	Compound	EC50 (CLL cells [1]) [µM]	ED50 ranking, FIG. 10 (CLL cells [4])	Apoptosis (TUNEL assay) (CLL cells [5])	Effects on cardiovascular, liver, or hematopoietic function [6]
0.1	0.5	C=CCC(=N)NCCC[C@H](N)C(=O)O [Vinyl-L-NIO, N^5-(1-Imino-3-butenyl)-L-ornithine]	1190 ± 456	–	–	–
–	–	CC(=O)O.CNC(=N)NCCC[C@H](N)C(=O)O [L-NMMA, N^G-Monomethyl-L-arginine monoacetate]	–	very high ED50	induced	no major effects

— patent publication US20090186929A1, “Method and agent for inducing apoptosis/cell death in leukemia cells” (U.S. DEPARTMENT OF VETERANS AFFAIRS, priority 2003, published 2009)
